Experimental data reported in patent US7649020B2, “Modafinil polymorphic forms” (Cephalon France, priority 2002, dated 2010).
Where two headings read alike, the source gives them in different places.

Legend:
[1] = Comparative bioavailability study in dogs, plasma levels of modafinil after a single oral dose; assay type: in vivo, dog
Experimental: A comparative bioavailability study was carried out in dogs to determine the pharmacokinetic profile of the new polymorphs form IV and form V of modafinil. The study was aimed to compare plasma levels of polymorphs form IV and form V versus the reference form I. Six male beagle dogs were randomly assigned to three groups according to a (3×3) Latin-square design. Each group was administered a single oral 30 mg/kg body weight dose of either form IV or form V or the reference form I and two successive administrations were separated by a one-week wash-out period according to the protocol design reported table 1.
Dogs were fasted overnight prior dosing and food was returned to them four hours after dosing. Blood samples were collected after each dose by venepuncture at predose (within one hour of dosing) and at 0.5, 1, 1.5, 2, 2.5, 3, 4, 5.5, 7, 9 and 24 hours post-dose. Blood samples were collected on heparinized test tubes and immediately centrifuged at 3,000 rpm. Then plasma was drawn off and stored frozen (−20° C.) until analyzed. Plasma concentrations of modafinil were determined by validated high-pressure liquid chromatography according to the method of Moachon G. et al. (J. Chromatog. B 1994; 654: 91). Pharmacokinetic parameters were determined using noncompartimental analysis.

[2] = Relative stability of polymorphic forms; assay type: physicochemical; conditions: 20° C. / room temperature
Excerpt: Modafinil form I was identified as the thermodynamic form (at room temperature). Form I is obtained via crystallization, preferably under atmospheric pressure, at room temperature.

[3] = Table 2, male beagle dogs, single oral 30 mg/kg, mean ± SEM, 30 mg/kg
[4] = Table 3, dogs, single oral 30 mg/kg, mean ± SEM, 30 mg/kg

NC(=O)C[S+]([O-])C(c1ccccc1)c1ccccc1 (racemic) [Form IV, 2-(benzhydrylsulfinyl) acetamide]
C4 h (plasma level measured at 4 hours post-dose) [1, 3]: 21.23 ± 1.88 µg/mL | Cmax (maximum plasma level of modafinil) [1, 3]: 24.98 ± 1.12 µg/mL | AUC0-24 h ([1]; Table 2, male beagle dogs, single oral 30 mg/kg, trapezoidal rule 0 to 24 hours post-dose, mean ± SEM, 30 mg/kg): 200.69 ± 18.09 µg·h/mL | systemic exposure (Cmax and AUC0-24h) compared with form I ([1]; dogs, equivalent dose 30 mg/kg by oral route): substantially higher

NC(=O)C[S+]([O-])C(c1ccccc1)c1ccccc1 (racemic) [Form I, 2-(benzhydrylsulfinyl) acetamide, reference compound]
stability of the polymorphic form [2]: most stable form | concentration at 4 h ([1]; male, beagle, dog, plasma, po, 30 mg/kg, Table 2, male beagle dogs, single oral 30 mg/kg, mean ± SEM, read-out: C4 h (plasma level measured at 4 hours post-dose)): 15400 ± 2560 ng/mL | Cmax ([1]; male, beagle, dog, plasma, po, 30 mg/kg, Table 2, male beagle dogs, single oral 30 mg/kg, mean ± SEM, read-out: Cmax (maximum plasma level of modafinil)): 18600 ± 2300 ng/mL | AUC(0-t) ([1]; male, beagle, dog, plasma, po, 30 mg/kg, Table 2, male beagle dogs, single oral 30 mg/kg, trapezoidal rule 0 to 24 hours post-dose, mean ± SEM, read-out: AUC0-24 h): 165 ± 23.7 µg·h/mL | concentration at 1 h ([1]; male, beagle, dog, plasma, po, 30 mg/kg, Table 3, dogs, single oral 30 mg/kg, mean ± SEM, read-out: C1 h (plasma level at 1 hour post-dose)): 8810 ± 2450 ng/mL | concentration at 1.5 h ([1]; male, beagle, dog, plasma, po, 30 mg/kg, Table 3, dogs, single oral 30 mg/kg, mean ± SEM, read-out: C1.5 h (plasma level at 1.5 hours post-dose)): 12700 ± 2390 ng/mL | concentration at 2 h ([1]; male, beagle, dog, plasma, po, 30 mg/kg, Table 3, dogs, single oral 30 mg/kg, mean ± SEM, read-out: C2 h (plasma level at 2 hours post-dose)): 14200 ± 2230 ng/mL | concentration at 2.5 h ([1]; male, beagle, dog, plasma, po, 30 mg/kg, Table 3, dogs, single oral 30 mg/kg, mean ± SEM, read-out: C2.5 h (plasma level at 2.5 hours post-dose)): 14200 ± 1950 ng/mL | Cmax ([1]; male, beagle, dog, plasma, po, 30 mg/kg, Table 3, dogs, single oral 30 mg/kg, mean ± SEM, read-out: Cmax): 18600 ± 2300 ng/mL | Tmax ([1]; male, beagle, dog, plasma, po, 30 mg/kg, Table 3, dogs, single oral 30 mg/kg, mean, read-out: Tmax (time to reach peak plasma level of modafinil)): 3 h | MRT ([1]; male, beagle, dog, plasma, po, 30 mg/kg, Table 3, male beagle dogs, single oral 30 mg/kg, mean ± SEM, read-out: MRT (mean residence time)): 6.91 ± 0.53 h

NC(=O)C[S+]([O-])C(c1ccccc1)c1ccccc1 (racemic) [Form V, 2-(benzhydrylsulfinyl) acetamide]
C1 h (plasma level at 1 hour post-dose) [1, 4]: 12.41 ± 2.07 µg/mL | C1.5 h (plasma level at 1.5 hours post-dose) [1, 4]: 15.31 ± 2.06 µg/mL | C2 h (plasma level at 2 hours post-dose) [1, 4]: 16.56 ± 2.48 µg/mL | C2.5 h (plasma level at 2.5 hours post-dose) [1, 4]: 16.37 ± 2.38 µg/mL | Cmax [1, 4]: 18720 ± 2090 ng/mL | Tmax (time to reach peak plasma level of modafinil) ([1]; Table 3, dogs, single oral 30 mg/kg, mean, 30 mg/kg): 1.67 h | MRT (mean residence time) ([1]; Table 3, male beagle dogs, single oral 30 mg/kg, mean ± SEM, 30 mg/kg): 6.11 ± 0.36 h | reduction in time needed to reach the concentration Cmax versus reference form I ([1]; dogs, equivalent oral dose 30 mg/kg): ~50% | mean Tmax value relative to that of reference polymorph I ([1]; dogs, oral 30 mg/kg, data of Table 3): about 50%

NC(=O)C[S+]([O-])C(c1ccccc1)c1ccccc1 (stereo not shown) [modafinil form II, 2-(benzhydrylsulfinyl) acetamide]
stability of the polymorphic form [2]: unstable
